Marks after values point to notes of the source that are not given here.
Test system: osteoclast differentiation
Test: Osteoclast differentiation in co-culture of mouse bone marrow cells and ST2 cells, TRAP staining (Examples 8-9)
Assay type: cell-based
Settings: for % number of osteoclast (vs. solvent control group): day 7; for activity at 0.1 µM: Mus musculus, Osteoclast, 168 h, day 7, read-out: % number of osteoclast (vs. solvent control group)
Method: The differentiation of osteoclast from mouse bone marrow cells was induced by using co-culture system, and inhibitory effect of the drug on osteoclast differentiation was evaluated by treatment of single or combination formulation. Co-culture was performed using mouse bone marrow cells and ST cells of bone marrow-derived stromal cell.
Femora and tibia were aseptically ectomized from 6˜8 week-old male ddY mice to harvest bone marrow cells by a general method using a syringe. The red blood cells were removed from the bone marrow cells, followed by centrifugation. The bone marrow cells were suspended in α-MEM medium supplemented with 10% fetal bovine serum, and the numbers of the eukaryotic cells in the harvested bone marrow cells were counted and then immediately used for a co-culture system.
ST2 cells (RIKEN Cell Bank, Tsukuba, Japan) were cultured in α-MEM medium supplemented with 10% fetal bovine serum until confluent. Then, these cells were diluted to a desired cell number, and used for the experiment.
The bone marrow cells (1×10^5 cells/well) and ST2 cells (3,000 cells/well) prepared in the above were plated in a 96-well plate using α-MEM medium supplemented with 10% fetal bovine serum. At this time, differentiation factors, 1α,25-dihydroxyvitamin D3 (10^−8 M, hereinbelow, referred to as vitamin D3) and dexamethasone (10^−8 M), were co-added to the medium to induce osteoclast differentiation. The medium was replaced with fresh media containing the differentiation factors every 2 to 3 days.
After 7 days, when multinucleated osteoclasts were observed, the medium was removed from the wells, and then the cells were fixed with PBS containing 10% Formalin. Tartrate-Resistant Acid Phosphatase (hereinbelow, referred to as TRAP) was used as a marker to measure the mature osteoclast in consideration of its characteristics showing a positive reaction to a TRAP staining solution. The TRAP staining solution was prepared in such the manner that a substrate, naphtol AS-MS phosphate and a coloring agent (Fast Red Violet LB salt) were dissolved in N,N-dimethylformamide. A 0.1 N NaHCO3 buffer solution containing 50 mM tartaric acid was added thereto, and the mixture was stored at a refrigerator prior to use as a staining solution. The osteoclasts with 6-7 or more nuclei showing a TRAP-positive reaction were counted under a microscope.
Alendronic acid was dissolved in distilled water at a concentration of 0.1 mM, and benzamidine derivatives were dissolved in DMSO at a concentration of 0.1 mM. All of them were diluted 1,000 fold with the differentiation media to a final concentration of 0.1 μM, respectively. In this connection, a control group was maintained in 0.1% DMSO.
As the above described, the sample substances and cells, which were diluted to the desired concentrations, were plated in 96-well plate, and co-cultured. On days 3 and 5 of culture, the media were replaced with fresh differentiation media containing the sample substances. On day 7 of culture, TRAP staining was performed to count the mature multinucleated osteoclast that was formed by differentiation. The mature osteoclasts with 6 or more nuclei were counted under a microscope. The results were expressed as a percentage (%) of the number of mature osteoclast observed in each experimental group, when the number of mature osteoclast in the control group (solvent only) was regarded as 100%. The experiment was performed with 4 wells per experimental group (n=4), and the results were expressed as mean value±standard deviation. In addition, the experiment was repeated at least two times, and Student t-test was applied for significant difference between experimental groups.
The experiment was performed in the same manner as in Example 8 to evaluate the effect of individual or combination treatment of risedronic acid and benzamidine derivatives of Formula 1 on osteoclast differentiation, except using 0.1 μM risedronic acid instead of 0.1 μM alendronic acid. […]

[1] = Combination treatment (alendronic acid + compounds), 0.1 μM each
[2] = Combination treatment (risedronic acid + compounds), 0.1 μM each
[3] = Individual treatment (compounds), 0.1 μM

Row | SMILES | % number of osteoclast (vs. solvent control group) [1] | % number of osteoclast (vs. solvent control group) [2] | activity at 0.1 µM [3] | % number of osteoclast (vs. solvent control group) [3]
1 | N=C(NO)c1ccc(OCCCCCOc2ccc(-c3nc(-c4ccccc4)sc3N)cc2)cc1 [Compound 330, N-hydroxy-4-{5-[4-(5-amino-2-phenyl-thiazol-4-yl)-phenoxy]-pentyloxy}-benzamidine] | 23 ± 3.9^ab % | 12 ± 2.4^ac % | 46 ± 4.7% | 
2 | Cc1nc(-c2ccc(OCCCCCOc3ccc(C(=N)NO)cc3)cc2)c(N2CCOCC2)s1 [Compound 286, N-hydroxy-4-{5-[4-(2-methyl-5-morpholin-4-yl-thiazol-4-yl)-phenoxy]-pentyloxy}-benzamidine] | 29 ± 4.1^b % | 26 ± 1.5^ac % | 43 ± 6.1% | 
3 | CN1CCN(CCc2sc(N3CCOCC3)nc2-c2ccc(OCCCCCOc3ccc(C(=N)NO)cc3)cc2)CC1 [Compound 274, N-hydroxy-4-[5-(4-{5-[2-(4-methyl-piperazin-1-yl)-ethyl]-2-morpholin-4-yl-thiazol-4-yl}-phenoxy)-pentyloxy]-benzamidine] | 31 ± 2.9^ab % | 13 ± 1.3^ac % | 65 ± 8.9% | 
4 | CNc1nc(-c2ccc(OCCCCCOc3ccc(C(=N)NO)cc3)cc2)c(CN2CCOCC2)s1 [Compound 335, N-hydroxy-4-{5-[4-(2-methylamino-5-morpholin-4-ylmethyl-thiazol-4-yl)-phenoxy]-pentyloxy}-benzamidine] | 41 ± 2.0^ab % | 23 ± 5.0^ac % | 54 ± 0.9% | 
5 | CN1CCN(c2sc(N3CCOCC3)nc2-c2ccc(OCCCCCOc3ccc(C(=N)NO)cc3)cc2)CC1 [Compound 289, N-hydroxy-4-(5-{4-[5-(4-methyl-piperazin-1-yl)-2-morpholine-4-yl-thiazol-4-yl]-phenoxy}-pentyloxy)-benzamidine] | 21 ± 7.4^b % | 10 ± 3.1^ac % | 36 ± 9.1% | 
6 | COCCNc1nc(-c2ccc(OCCCCCOc3ccc(C(=N)NO)cc3)cc2)c(C)s1 [Compound 94, N-hydroxy-4-{5-[4-(2-(2-methoxyethyl)amino-5-methyl-1,3-thiazol-4-yl)phenoxy]pentyloxy}-benzamidine] | 20 ± 4.8^ab % | 16 ± 3.3^ac % | 45 ± 3% | 
7 | CN(Cc1ccncc1)c1nc(-c2ccc(OCCCCCOc3ccc(C(=N)NO)cc3)cc2)c(CN2CCOCC2)s1 [Compound 309, N-hydroxy-4-(5-{4-[2-(methyl-pyridin-4-ylmethyl-amino)-5-morpholin-4-ylmethyl-thiazol-4-yl]-phenoxy}-pentyloxy)-benzamidine] | 13 ± 5.1^ab % | 8 ± 3.0^ac % | 50 ± 6.1% | 
8 | CCc1sc(N(Cc2cccnc2)Cc2cccnc2)nc1-c1ccc(OCCCCCOc2ccc(C(=N)NO)cc2)cc1 [Compound 137, N-hydroxy-4-[5-(4-{2-[bis-(pyridin-3-ylmethyl)amino]-5-ethyl-1,3-thiazol-4-yl}phenoxy)pentyloxy]-benzamidine] | 11 ± 4.3^b % | 7 ± 2.2^ac % | 19 ± 2.9% | 
9 | N=C(NO)c1ccc(OCCCCCOc2ccc(-c3nc(N)sc3CC3CCCC3)cc2)cc1 [Compound 67, N-hydroxy-4-{5-[4-(2-amino-5-cyclopentylmethyl-1,3-thiazol-4-yl)phenoxy]pentyloxy}-benzamidine] | 53 ± 6.4^b % | 36 ± 1.7^ac % | 74 ± 11.7% | 
10 | CC(C)c1sc(N(C)Cc2cccnc2)nc1-c1ccc(OCCCCCOc2ccc(C(=N)NO)cc2)cc1 [Compound 141, N-hydroxy-4-[5-(4-{5-isopropyl-2-[methyl-(pyridin-3-ylmethyl)amino]-1,3-thiazol-4-yl}phenoxy)pentyloxy]-benzamidine] | 65 ± 2.8% | 60 ± 7.5^ac % | 84 ± 8.8% | 
11 | COCCN(C)c1nc(-c2ccc(OCCCCCOc3ccc(C(=N)NO)cc3)cc2)c(CN2CCOCC2)s1 [Compound 319, N-hydroxy-4-[5-(4-{2-[(2-methoxy-ethyl) -methyl-amino]-5-morpholin-4-ylmethyl-thiazol-4-yl}-phenoxy)-pentyloxy]-benzamidine] | 25 ± 2.6^ab % | 11 ± 3.3^ac % | 54 ± 5.9% | 
12 | CN(Cc1cccnc1)c1nc(-c2ccc(OCCCCCOc3ccc(C(=N)NO)cc3)cc2)c(CN2CCOCC2)s1 [Compound 321, N-hydroxy-4-(5-{4-[2-(methyl-pyridin-3-ylmethyl-amino)-5-morpholin-4-ylmethyl-thiazol-4-yl]-phenoxy}-pentyloxy)-benzamidine] | 19 ± 4.1^ab % | 18 ± 3.0^ac % | 48 ± 7% | 
13 | CCCN(CCC)c1nc(-c2ccc(OCCCCCOc3ccc(C(=N)NO)cc3)cc2)c(C(C)C)s1 [Compound 157, N-hydroxy-4-{5-[4-(5-isopropyl-2-dipropylamino-1,3-thiazol-4-yl)phenoxy]pentyloxy}-benzamidine] | 39 ± 8.3^ab % | 36 ± 15.1^ac % | 78 ± 13.5% | 
14 | CCN(CC)CCc1sc(C)nc1-c1ccc(OCCCCCOc2ccc(C(=N)NO)cc2)cc1 [Compound 224, N-hydroxy-4-(5-{4-[5-(2-diethylamino-ethyl)-2-methyl-thiazol-4-yl]-phenoxy}-pentyloxy)-benzamidine] | 53 ± 2.9^ab % | 58 ± 10.8% | 77 ± 8.4% | 
15 | N=C(NO)c1ccc(OCCCCCOc2ccc(-c3nc(C4CCCCC4)sc3CCNCCN3CCOCC3)cc2)cc1 [Compound 248, N-hydroxy-4-[5-(4-{2-cyclohexyl-5-[2-(2-morpholin-4-yl-ethylamino)-ethyl]-thiazol-4-yl}-phenoxy)-pentyloxy]-benzamidine] | 33 ± 5.6^b % | 27 ± 4.9^ac % | 49 ± 8.7% | 
16 | CN(C)c1nc(-c2ccc(OCCCCCOc3ccc(C(=N)NO)cc3)cc2)c(CC2CCCC2)s1 [Compound 163, N-hydroxy-4-{5-[4-(5-cyclopentylmethyl-2-dimethylamino-1,3-thiazol-4-yl)phenoxy]pentyloxy}-benzamidine] | 55 ± 7.6% | 41 ± 7.3^ac % | 65 ± 8.8% | 
17 | CCN(CCN1CCOCC1)c1nc(-c2ccc(OCCCCCOc3ccc(C(=N)NO)cc3)cc2)c(C)s1 [Compound 124, N-hydroxy-4-[5-(4-{2-[ethyl-1-(2-morpholinoethyl)-amino]-5-methyl-1,3-thiazol-4-yl}phenoxy)pentyloxy]-benzamidine] | 21 ± 4.3^ab % | 17 ± 5.2^ac % |  | 49 ± 3.0%
18 | C=Cc1sc(-c2cccnc2)nc1-c1ccc(OCCCCCOc2ccc(C(=N)NO)cc2)cc1 [Compound 79, N-hydroxy-4-{5-[4-(5-vinyl-2-(pyridin-3-yl)-1,3-thiazol-4-yl)phenoxy]pentyloxy}-benzamidine] | 22 ± 6.7^ab % | 16 ± 4.0^ac % | 44 ± 7.5% | 
19 | Cc1nc(-c2ccc(OCCCCCOc3ccc(C(=N)N)cc3)cc2)c(C)s1 [Compound 54, 4-{5-[4-(2,5-dimethyl-1,3-thiazol-4-yl)phenoxy]pentyloxy}-benzamidine] | 20 ± 4.1^ab % | 19 ± 4.9^ac % | 41 ± 8.3% | 

Source: patent publication US8008329B2 (Dong Wha Pharmaceutical Co., Ltd., priority 2008, dated 2011)
